Results taken from article PMC4210897, “Antimicrobial Activity of Peptides Derived from Olive Flounder Lipopolysaccharide Binding Protein/Bactericidal Permeability-Increasing Protein (LBP/BPI)” (Marine Drugs, 2014).
Where no end group is shown, it is not given here.

What was measured:
DNA polymerase = conditions: PCR of E. coli 16S rDNA; for DNA polymerase inhibitory ability: 100 ng genomic DNA, 30 cycles
Description: The ofLBP analogs were dissolved in 0.01% acetic acid at a concentration of 1000 μg/mL. To assess PCR inhibition, various concentrations of the ofLBP analogs (2.5, 1.25, 0.625, and 0.313 μg/mL) were added to the respective reaction mixtures. E. coli genomic DNA (100 ng) was used as a template for PCR with the following primer pairs: 16S-F1, 5′-[…]-3′ and 16S-R3, 5′-[…]-3′. The predicted amplicon is ~1.5 kb in length. Each PCR comprised 30 cycles each of 30 s at 95 °C, 30 s at 55 °C, and 1 min at 72 °C. After PCR, all amplicons were electrophoresed in 1.0% agarose gels containing EtBr.

[1] = system: human red blood cells (RBCs, blood type O); assay: Hemolytic activity assay; format: cell-based; conditions: 3% hematocrit, 60 min, 37 °C; for Hemolysis against RBCs up to 100 μg/mL: A405, up to concentrations of 100 μg/mL, triplicate averaged
Description: The hemolytic activity of the peptides was determined using human red blood cells (RBCs, blood type O). The RBCs were collected from citric acid-treated blood by centrifugation at 3000× g for 5 min and washed three times with 10 mM PB (pH 7.4) containing 150 mM NaCl to remove the plasma and buffy coat. A suspension of 3% hematocrit in buffer with or without peptides was incubated for 60 min at 37 °C. Hemolysis was expressed as the hemoglobin content obtained from the absorbance of the supernatant at 405 nm after centrifugation at 3000× g for 5 min. A 100% hemolysis was determined based on hemoglobin release after the addition of 0.1% Triton X-100. The hemolysis percentage of the peptides was calculated using the following formula: % Hemolysis = [(Abs405nm in the peptide solution − Abs405nm in buffer)/(Abs405nm in 0.1% Triton X-100 − Abs405nm in buffer)] × 100
Hemolytic assays were performed in triplicate and the results were averaged.

V. harveyi = assay: URDA of non-heated and heated peptides; format: cell-based, Vibrio harveyi; conditions: non-heated and after 100 °C for 10 min
S. iniae = assay: URDA of non-heated and heated peptides; format: cell-based, Streptococcus iniae; conditions: non-heated and after 100 °C for 10 min
Description: (§1) The antimicrobial activity of the purified peptide was assessed as described previously. We tested the synthetic peptides against several Gram-positive bacteria including two Bacillus subtilis strains, Micrococcus luteus, Staphylococcus aureus, and Streptococcus iniae, Gram-negative bacteria including three Escherichia coli strains, Aeromonas hydrophila, Edwardsiella tarda, Pseudomonas aeruginosa, Vibrio parahemolyticus, and Salmonella enteric, as well as the yeast Candida albicans. All strains were grown overnight for 18 h in trypticase soy broth (TSB) or sabouraud dextrose broth (SDB) at the appropriate temperature (25 °C for A. hydrophila, E. tarda, P. aeruginosa, S. iniae, and V. parahemolyticus and 37 °C for the other strains). After an overnight incubation, the bacterial and C. albicans suspensions were diluted to a McFarland turbidity standard of 0.5 (Vitek Colorimeter #52-1210; Hach, Loveland, CO, USA) corresponding to ~10^8 CFU/mL for bacteria and ~10^6 CFU/mL for C. albicans. One-half milliliter of diluted bacterial or C. albicans suspension was added to 9.5 mL of underlay gel containing 5 × 10^6 CFU/mL or 5 × 10^4 CFU/mL in 10 mM phosphate buffer (PB; pH 6.6) with 0.03% TSB or 0.03% SDB and 1% Type I (low EEO) agarose. The purified peptide was serially diluted twofold in 5 μL of acidified water (0.01% HAc), and each dilution was added to 2.5-mm-diameter wells made in the 1-mm-thick underlay gels. After incubation for 3 h at either 25 °C (for A. hydrophila, E. tarda, P. aeruginosa, S. iniae, and V. parahemolyticus) or 37 °C (the other strains), the bacterial or yeast suspension was overlaid with 10 mL of double-strength overlay gel containing 6% TSB or 6% SDB with 10 mM PB (pH 6.6) in 1% agarose. Plates were incubated for an additional 18–24 h, after which the clearing zone diameters were measured. After subtracting the diameter of the well, the clearing zone diameter was expressed in units (0.1 mm = 1 U).
(§2) To investigate the effect of temperature on ofLBP analogs, antimicrobial activity was tested using an ultrasensitive radial diffusion assay (URDA) against two bacteria including V. harveyi and S. iniae, as well as a yeast, C. albicans. To explore thermal stability, the ofLBP analogs were incubated at 100 °C for 10 min. After heat treatment, the peptides were cooled and used for URDA as described above.

λ-HindIII-digested DNA = assay: DNA-binding assay (gel retardation, EMSA); conditions: λ-HindIII-digested DNA 50 ng, 5 min room temperature, 1.0% agarose; for Electrophoretic mobility of DNA at 0.625 μg peptide: peptide 0.625 μg
Description: DNA binding assays were performed as described previously with minor modifications. This test assessed peptide-DNA binding by examining the inhibition of the rate of migration of DNA bands through agarose gels. A commercial molecular weight marker, λ-HindIII-digested DNA (50 ng) (Roche, Basel, Switzerland), was mixed with varying amounts of peptide (0 μg, 0.156 μg, 0.313 μg, 0.625 μg, and 1.25 μg) in 0.01% acetic acid, incubated at room temperature for 5 min, and then electrophoresed in 1.0% agarose gels containing 0.5 μg/mL ethidium bromide (EtBr).

C. albicans = assay: URDA of non-heated and heated peptides; format: cell-based, Candida albicans; conditions: non-heated and after 100 °C for 10 min
Description: as §1, §2

E. coli D31 = assay: URDA, MEC; format: cell-based, Escherichia coli; conditions: E. coli D31, Gram −, pH 6.6, 37 °C, triplicate averaged
Description: as §1
All tested bacteria and yeast were prepared as described above. The minimal effective concentration (MEC, μg/mL) of the synthetic peptides was calculated as the x-intercept of a plot of units against the log10 of the peptide concentration. […] The antimicrobial assay was performed in triplicate and the results were averaged.

B. subtilis KCTC1021 = assay: Killing kinetic assay; format: cell-based, Bacillus subtilis; conditions: 10^6 CFU/mL, 37 °C, triplicate averaged
Description: To determine the killing activities of ofLBP-derived analogs, kinetic studies were performed using B. subtilis KCTC1021 and E. coli ML35p at 1× MEC and 5× MEC concentrations. Overnight culture of B. subtilis KCTC1021 and E. coli ML35p were diluted in TBS to a cell density of 10^6 CFU/mL and 1 mL of each suspension was exposed to each ofLBP-derived analog and incubated at 37 °C overnight. The resulting colonies were counted. Percent killing was calculated as the proportion of live bacteria at a given time point following the addition of peptide compared to the number of bacteria present prior to the addition of peptide. Control cultures of each bacterium were incubated without any peptide and assayed at time points corresponding to the test culture assays to ensure no spontaneous loss of viability. Killing kinetic assays were also performed in triplicate, and the results were averaged.

Substance | DNA polymerase inhibitory ability (DNA polymerase) | Hemolysis against RBCs up to 100 μg/mL [1] | Antimicrobial activity against V. harveyi (URDA) (V. harveyi) | Antimicrobial activity against S. iniae (URDA) (S. iniae) | Electrophoretic mobility of DNA at 0.625 μg peptide (λ-HindIII-digested DNA) | Electrophoretic mobility of DNA at 1.25 μg peptide (λ-HindIII-digested DNA; peptide 1.25 μg) | Antimicrobial activity against C. albicans (URDA) (C. albicans) | DNA polymerase inhibition at 1.25 μg (DNA polymerase; 1.25 μg peptide, compared to ofLBP 6A) | Minimal Effectives Concentration (E. coli D31) [µg/mL] | Time to kill B. subtilis KCTC1021 at 1× MEC (B. subtilis KCTC1021) [min] | Time to kill B. subtilis KCTC1021 at 5× MEC (B. subtilis KCTC1021) [min] | DNA polymerase inhibition at all tested concentrations (DNA polymerase; 0.313–2.5 μg peptide) | Hemolytic activity at 50 μg/mL [1] | Hemolytic activity from 50–100 μg/mL ([1]; concentrations of 50–100 μg/mL, 100% = 0.1% Triton X-100)
KLVKTQLKVLK [ofLBP 4N] | no DNA polymerase inhibitory ability | did not cause hemolysis | did not show any antimicrobial activity | did not show any antimicrobial activity | slightly inhibited | almost completely inhibited | did not show any antimicrobial activity |  |  |  |  |  |  | 
KLVKTWLKVLK [ofLBP 5A] | strong DNA polymerase inhibitory ability | did not cause hemolysis |  |  | almost completely inhibited |  | significant activity | less inhibitory activity | 0.9 |  |  |  |  | 
MKLVKTWLKVLK-NH2 [ofLBP 6A] | strong DNA polymerase inhibitory ability |  | significant activity | significant activity | almost completely inhibited |  | significant activity |  | 2.6 | ≤ 40 | ≤ 10 | complete inhibitory activity | did not show significant hemolytic activity | 
Piscidin 1 [reference compound] |  |  |  |  |  |  |  |  | 2.0 | ≤ 40 | ≤ 10 |  |  | 
RFPGLMMKLLV-NH2 (C-terminus assumed) [ofLBP 1N] |  |  |  | significant activity |  |  | significant activity |  | 1.3 |  |  |  | did not show significant hemolytic activity | 
RFPKLMMKLLV-NH2 [ofLBP 2A] |  |  |  | significant activity |  |  | significant activity |  | 0.5 |  |  |  | did not show significant hemolytic activity | 28%–50%
